This is an account of results in publication PMC5342071, “A first generation inhibitor of human Greatwall kinase, enabled by structural and functional characterisation of a minimal kinase domain construct” (Oncotarget, 2016).

The subject of data set [1] is 50 different protein kinases. The data set is described as follows: Kinase inhibition profiling against 50 protein kinases (University of Dundee). The settings on record: 25 μM. It counts as biochemical, human. As for the experimental part:
In order to gain a greater understanding of potential off-target interactions of GKI-1, we undertook more rigorous kinase inhibition profiling (International Centre for Kinase Profiling, University of Dundee) where GKI-1 was tested against 50 different protein kinases, carefully selected to provide representative sampling across the human kinome.
Figure S9. Kinase phylogeny vs GKI-1 inhibitory activity
Kinome render [Manning et al. (2002)] was used to generate a phylogenetic map with overlapping 25
µM GKI-1 inhibitory activity plotted against 50 kinases, carefully selected to represent the human
kinome. Illustration reproduced courtesy of Cell Signaling Technology, Inc. (www.cellsignal.com)
(1 picture or pasted object on this page, not shown here)

Data set [2] deals with HeLa cells. Nature of the data set: Immunofluorescence of p-ENSA (Ser67) in nocodazole-arrested HeLa cells. The data set is classed as cell-based, human. From the text:
To more directly address the presence of other off-target effects, and / or any level of compound toxicity, we conducted a more comprehensive phenotypic analysis of GKI-1 and GWL siRNA (siGWL, Figure 5A) treated cells by immunofluorescence (IF) and time-lapse video microscopy. Using an antibody that specifically detects phosphorylation of ENSA-Ser67 (p-ENSA), we established an IF assay in order to measure GWL kinase activity in HeLa cells. We treated the cells with nocodazole in order to arrest cells in mitosis, the cell cycle stage where GWL is maximally active (Figure 5B).
Figure 5 In cellulo efficacy of GKI-1 in HeLa cells A. HeLa cells were transfected with either non-targeting (siSCR) or GWL targeting siRNAs (siGWL). GWL and loading control protein (Tubulin) were detected by western analysis. B., C. HeLa cells treated with siSCR or siGWL (48-h) were arrested in mitosis using nocodazole and treated with DMSO, 25 μM or 50 μM GKI-1. […] (C) Quantitation of the IF p-ENSA and GWL signals was performed using the ScanR High-Content Screening Station. […] Time-lapse videos were generated using ImageJ and cellular phenotypes recorded: Mitotic events (D), mitotic arrest (E, F) and failed cytokinesis G. F. Kymographs showing an example of typical phenotypes were generated by capturing images every 5 minutes for 80 minutes. […]
HeLa cells were plated on glass coverslips and then transfected with siRNAs using Lipofectamine RNAiMax [ThermoFisher Scientific]. […] Time-lapse videos for treated cells were recorded on an Olympus IX3 microscope fitted with an Ocra-Flash 4.0 CMOS camera [Hamatsu]. […]
hGWLFL, 100 µl of lysate was diluted 5-fold with IP buffer and combined with 3 µl anti-Flag M2 magnetic Dynabeads [Sigma-Aldrich] overnight at 4 °C. […] The reaction was stopped by adding SDS loading buffer and analysed by western blot: p-ENSA and GWL levels were detected using the anti-phospho(Ser67)-ENSA and anti-MASTL(GWL, Prestige) antibodies. Activity was measured as the p-ENSA/GWL ratio and % kinase activity was normalised to the DMSO control. […]

In data set [3] the test system is HeLa cells. The data set is described as follows: Time-lapse video microscopy of HeLa cells. The data set is classed as cell-based, human. As for the experimental part: Figure 5 In cellulo efficacy of GKI-1 in HeLa cells A. HeLa cells were transfected with either non-targeting (siSCR) or GWL targeting siRNAs (siGWL). GWL and loading control protein (Tubulin) were detected by western analysis. B., C. HeLa cells treated with siSCR or siGWL (48-h) were arrested in mitosis using nocodazole and treated with DMSO, 25 μM or 50 μM GKI-1. Immunofluorescent staining of p-ENSA (Red) and GWL (Green) was achieved using anti-phospho(Ser67)-ENSA and anti-MASTL(GWL, RIPLY 74C) antibodies and DAPI was used to stain the nucleus (Blue). (C) Quantitation of the IF p-ENSA and GWL signals was performed using the ScanR High-Content Screening Station. The Circularity and Total DAPI parameters were used to identify mitotic cells. D., E. HeLa cells treated with siSCR or siGWL (48-h) were treated with DMSO, 25 or 50 μM GKI-1. 4-h after treatment, μ-slides were mounted onto an Olympus IX73 microscope, within a temperature-controlled 37°C chamber maintained at 5% CO2, and images were acquired every 5-min for 8.5-h. Time-lapse videos were generated using ImageJ and cellular phenotypes recorded: Mitotic events (D), mitotic arrest (E, F) and failed cytokinesis G. F. Kymographs showing an example of typical phenotypes were generated by capturing images every 5 minutes for 80 minutes. Image sequences were chosen to start just before mitotic entry. (B - G) A total of 3 - 5 biological replicates were completed per condition and the t-test statistical module of Prism 6.0 was used to determine p-values (ns (not statistically significant): P > 0.05; *: P ≤ 0.05; **: P ≤ 0.01; ***: P ≤ 0.001).
HeLa cells were plated on glass coverslips and then transfected with siRNAs using Lipofectamine RNAiMax [ThermoFisher Scientific]. 48 hours after treatment, cells to be used for immunofluorescence were treated with nocodozole and DMSO, or GKI-1. After fixing and staining with antibodies, cells were visualised with a ScanR High Content Screening Station [Olympus Life Science]. Time-lapse videos for treated cells were recorded on an Olympus IX3 microscope fitted with an Ocra-Flash 4.0 CMOS camera [Hamatsu]. […]
Immunofluorescence and Time-lapse video microscopy
2.5 X 105 HeLa cells were plated onto glass coverslips in a 6-well plate, or 4-well µ-slides [Ibidi GmbH] were seeded with 5 X 104 cells and then transfected with Qiagen AllStars negative control or Hs_MASTL_6 siRNAs (14) using Lipofectamine RNAiMax [ThermoFisher Scientific]. Media was exchanged with fresh media the next day. 48 hours after siRNA treatment, only cells to be used for immunofluorescence (IF) were treated with nocodazole (200 ng/mL) and DMSO or GKI-1 at the indicated concentration. For IF, cells were fixed, stained with primary mouse anti-GWL and rabbit anti-p-ENSA antibodies, secondary Alexa Fluor 647-conjugated anti-rabbit and Alexa Fluor 488-conjugated anti-mouse antibodies, DAPI and mounted onto glass microscope slides using Diamond Antifade Mountant [Molecular Probes, ThermoFisher Scientific]. Quantitation of IF images was performed using the ScanR High-Content Screening Station [Olympus Life Science] which acquired 220, 40x images per cover slip. Data were normalised against the AllStars negative control siRNA treated cells and values obtained from three biological replicates were reported as the mean ± 1 S.D. To assist with selecting mitotic cells, ScanR imaging software was utilised to gate for mitotic cells using the circularity factor and total […]
To produce time-lapse videos, after 48 hours and cell treatment with DMSO or compound (cells were treated with GKI-1 for 4-h before image acquisition) cells plated in 4-well µ-slides were imaged every 5 minutes for 8.5 hours on an Olympus IX73 microscope, using a 40 x 0.95NA air objective, and recorded on an Orca-Flash 4.0 CMOS camera [Hamatsu]. The computer program Fiji (http://www.fiji.sc/Fiji) was used to generate videos from […]
image sequence TIF files. […]

SMILES strings stand for the structures.

Consider `Clc1ccc(Nc2cccc(-c3cn[nH]c3)c2)cc1` [GKI-1, N-(4-chlorophenyl)-3-(1H-pyrazol-4-yl)aniline], for which the “off-target interactions in kinase panel” value in data set [1] was “several off-target interactions”. Moreover, the “reduction in p-ENSA levels compared to control” value in data set [2] (25 μM, nocodazole-arrested HeLa cells) is 2 fold. In data set [2] (50 μM, nocodazole-arrested HeLa cells), the p-ENSA signal result is listed as “levels comparable to siGWL treated cells”. Besides, the “levels of p-ENSA by immunofluorescence” value in data set [2] (co-incubation with nocodazole, 25 and 50 μM) is listed as “dose-dependent decrease”. In data set [3] (50 μM), the mitotic events entry is “effect comparable to siGWL treatment” and the “time remaining in prometaphase/metaphase” value is given as “two to six”. Besides, in data set [3] (25 and 50 μM, vs scrambled control siRNA), the mitotic events entry is recorded as “general decrease in mitotic events”. Besides, the failure in cytokinesis result in data set [3] (GKI-1 treated cells compared with GWL depletion) was “only rarely observed”. The “sensitivity of treated cells to fluorescent light” value in data set [3] (blue to green spectrum, live cell imaging) is “highly sensitive”. Besides, the mitotic progression entry in data set [3] (relative to SCR-treated cells) is on record as “significant delay in mitotic progression”.
